Results on 29 molecules are retold here after PMC3981819, “Signaling Properties and Pharmacological Analysis of Two Sulfakinin Receptors from the Red Flour Beetle, Tribolium castaneum” (PLoS ONE, 2014).

Square brackets hold non-standard residues; d marks the D form. Ends that are not written are not given here. pGlu = O=C1CC[C@@H](C(=O)O)N1

One assay concerns Trica-SKR2. Kind of assay: Aequorin-luminescence assay, CHO-WTA11 cells (Gα16) transfected with Trica-SKR2. It is filed as cell-based, Tribolium castaneum. The settings on record: for % Trica-SKR2 (relative activation): peptide at 1 μM, relative to sTrica-SK(5–13) at 1 μM = 100%, at least three biological repeats, each in duplicate. The protocol:
(§1) General pharmacological studies were performed in Chinese Hamster Ovary (CHO) WTA11 cells, stably coexpressing apoaequorin, a zeocin resistance gene and the promiscuous Gα16, which couples most agonist-induced GPCRs to the phospholipase C and Ca^2+ pathway irrespective of their natural signaling cascade. CHO-PAM28 cells stably expressing apoaequorin and a puromycin resistance gene but not Gα16 and HEK293T cells (Invitrogen) were used to determine possible effects on Ca^2+ and/or cAMP second messenger systems, respectively. All cell lines were cultured in Dulbecco’s Modified Eagles Medium nutrient mixture F12-Ham (DMEM/F12; Invitrogen) supplemented with 1% penicillin/streptomycin (10000 units/ml penicillin and 10 mg/ml streptomycin in 0.9% NaCl; Invitrogen) to prevent bacterial contamination of gram-positive and gram-negative bacteria. In CHO-WTA11 culture medium 250 μg/ml zeocin (Invitrogen) was added as a selection marker, while CHO-PAM28 culture medium was supplemented with 5 μg/ml puromycin to select cells stably expressing apoaequorin. All cell culture media were supplemented with 10% fetal bovine serum (inactivated at […]; Sigma-Aldrich).
(§2) Cells were cultured in vitro as a monolayer at 37°C with a constant supply of 5% CO2 and were subcultivated twice a week. Transfections of cells were performed in T75 flasks at 60–80% confluency. Transfection reagent for CHO cells was prepared by combining 3.75 ml Opti-MEM I (Invitrogen), 7.5 μg plasmid DNA and 18.75 μl of Plus Reagent (Invitrogen). After gently mixing and 5 min incubation at room temperature 45 μl of Lipofectamine LTX was added to the mixture. This transfection medium was incubated for 30 min at room temperature and added dropwise to the cells, supplemented with 3 ml of fresh culture medium. HEK 293T cells were cotransfected with a receptor construct (6 μg) and CRE-luciferase reporter construct (3 μg), consisting of the open reading frame of the luciferase gene, downstream of a multimerized cAMP-response-element (CRE) and promoter. After transfection, cells were grown overnight before an additional 20 ml of culture medium was supplemented. Cells were again incubated overnight for a final growth phase before luminescence screens were performed.
(§3) The aequorin luminescence assay was used to measure Ca^2+ signaling in CHO cell lines. Cells were detached using phosphate buffered saline (PBS) containing 0.2% EDTA and collected in 10 ml of DMEM/F-12 (without phenol red, with L-glutamine and 10 mM HEPES; Gibco). The viable cells were quantified using a NucleoCounter NC-100 (Chemometic). Cells were pelleted by 4 min centrifugation at 800 rpm at room temperature and resuspended in DMEM/BSA (DMEM/F-12 without phenol red, with L-glutamine and 10 mM HEPES, 0.1% bovine serum albumin) at a concentration of 5×10^6 cells/ml. Cells were then shielded from light and Coelenterazine H (Invitrogen) was added at a final concentration of 5 μM. Cells were gently shaken at room temperature for 4 h under dark conditions, allowing the aequorin holoenzyme to be reconstituted. After a 10-fold dilution in DMEM/BSA, cells were incubated another 30 min under the same conditions. Pharmacological ligands were dissolved in DMEM/BSA and 50 μl of ligand was added to wells of a 96-well plate. Wells containing 50 μl of DMEM/BSA were used as a negative control, while wells containing 1 μM of ATP served as positive control. Incubated cells were added to the wells of the 96-well plate and light emission was measured for 30 s using a Mithras LB940 (Berthold Technologies). After 30 s Triton X-100 (0.2% in DMEM/BSA) was added, lysing the cells and thus serving as an internal reference. Light emission was measured for an additional 8 s after Triton X-100 was introduced in the wells. Light emission from each well was calculated relative to the total response (ligand+Triton X-100) using the output file of Mikrowin2000 software (Mikrotek). Further analysis was done in Graphpad Prism 5.

A further assay deals with Trica-SKR1. Kind of assay: Aequorin-luminescence assay, CHO-WTA11 cells (Gα16) transfected with Trica-SKR1. The class given is cell-based, Tribolium castaneum. As to conditions: for % Trica-SKR1 (relative activation): peptide at 1 μM, relative to sTrica-SK(5–13) at 1 μM = 100%, at least three biological repeats, each in duplicate. The protocol:
as §1, §2, §3

The target of assay [1] is Tribolium castaneum sulfakinin receptor 2 (T. castaneum).
The target of assay [2] is Tribolium castaneum sulfakinin receptor 1 (T. castaneum).

As for “DDYGHMRFa [2009[φ1]wp-1, truncated nonsulfated SK analog]”, the “% Trica-SKR2 (relative activation)” value in the assay on Trica-SKR2 (aequorin bioluminescence) is reported as 17.1%. Also, in the assay on Trica-SKR1 (aequorin bioluminescence), the “% Trica-SKR1 (relative activation)” value is 27.2%.
For “DGY(SO3H)RPLQFa [1678B[φ1]wp-6, sulfated SK-like peptide encoded by C. elegans nlp-12]” the same measures were 19.9% and 28.5%.
The like results for “DY(SO3H)RPLQFa [1678A[φ1]wp-4, sulfated SK-like peptide encoded by C. elegans nlp-12]” were, in that order, 32.6% and 40.8%.
The like results for “DYGHMRFa [2010[φ1]wp-1, truncated nonsulfated SK analog]” were, in that order, 8.6% and 7.6%.
As to “FDDAGHMRFa [2008[φ1]wp-2, alanine scan analog of nsTrica-SK, tyrosine replaced]”, the “% Trica-SKR2 (relative activation)” value in the assay on Trica-SKR2 (aequorin bioluminescence) is on record as 12.1%. Besides, the “% Trica-SKR1 (relative activation)” value in the assay with Trica-SKR1 (aequorin bioluminescence) was 10.1%.
For “FDDYAHMRFa [2007[φ1]wp-1, alanine scan analog of nsTrica-SK, glycine replaced]” the same measures were 25.6% and 30.6%.
The like results for “FDDYGAMRFa [2006[φ1]wp-1, alanine scan analog of nsTrica-SK]” were, in that order, 3.5% and 2.3%.
Take “FDDYGHARFa [2005[φ1]wp-3, alanine scan analog of nsTrica-SK]”: the “% Trica-SKR2 (relative activation)” value in the assay on Trica-SKR2 (aequorin bioluminescence) is reported as 11.1%. Besides, the “% Trica-SKR1 (relative activation)” value in the assay on Trica-SKR1 (aequorin bioluminescence) is given as 5.1%.
The like results for “FDDYGHMAFa [2004[φ1]wp-1, alanine scan analog of nsTrica-SK]” were, in that order, 7.3% and 5.9%.
As to “FDDYGHMRAa [2003[φ1]wp-2, alanine scan analog of nsTrica-SK]”, the “% Trica-SKR2 (relative activation)” value in the assay on Trica-SKR2 (aequorin bioluminescence) was 15.6%. For the same molecule, the “% Trica-SKR1 (relative activation)” value in the assay with Trica-SKR1 (aequorin bioluminescence) is 8.2%.
Take FDDYGHMRFa [nsTrica-SK(5–13)]: the “% Trica-SKR2 (relative activation)” value with Trica-SKR2 (aequorin bioluminescence) came out at 23.5%. Further, the “% Trica-SKR1 (relative activation)” value with Trica-SKR1 (aequorin bioluminescence) turned out to be 29.9%.
The like results for FDDYGHMRa [2076[φ1]wp-2] were, in that order, 19.7% and 25.8%.
Regarding “GHMRFa [2053[φ1]wp-4, truncated nonsulfated SK analog]”, the “% Trica-SKR2 (relative activation)” value in the assay on Trica-SKR2 (aequorin bioluminescence) turned out to be 44.6%. In addition, in the assay with Trica-SKR1 (aequorin bioluminescence), the “% Trica-SKR1 (relative activation)” value is 13.3%.
For “HMRFa [2052[φ1]wp-3, tetrapeptide HMRFamide, truncated analog]” the same measures were 33.4% and 43.4%.
On to “PVDY(SO3H)DRPIMAFa [1569[φ2]wp-4, sulfated neuropeptide derived from C. elegans nlp-13]”, for which the “% Trica-SKR2 (relative activation)” value in the assay on Trica-SKR2 (aequorin bioluminescence) turned out to be 13.4%. Besides, in the assay with Trica-SKR1 (aequorin bioluminescence), the “% Trica-SKR1 (relative activation)” value amounted to 6.2%.
The like results for “SDDY(SO3H)GHMRFa [1835[φ2]wp-4, sulfated SK analog SDDY(SO3H)GHMRFa]” were, in that order, 41.4% and 58.2%.
The like results for “SPVDY(SO3H)DRPIMAFa [1567[φ1]wp-5, sulfated neuropeptide derived from C. elegans nlp-13]” were, in that order, 33.7% and 23.6%.
Take “SPVDYDRPIMAFa [1432-2[φ]wp-6, peptide derived from C. elegans nlp-13]”: the “% Trica-SKR2 (relative activation)” value in the assay on Trica-SKR2 (aequorin bioluminescence) is 11.2%. Besides, in the assay on Trica-SKR1 (aequorin bioluminescence), the “% Trica-SKR1 (relative activation)” value amounted to 16.4%.
The like results for “YGHMRFa [2011[φ1]wp-1, truncated nonsulfated SK analog]” were, in that order, 21.2% and 26.3%.
Broadly, the EC50 is the concentration at which the effect is half-maximal. Low values mean an effect from little substance, high ones a need for much substance. “pQLASDDY(SO3H)GHMRFa [sLocmi-SK, sulfated SK from the migratory locust, Locusta migratoria]”: the EC50 worked out at 776 ± 443 nM with Trica-SKR2 (aequorin bioluminescence, 1 fM to 1 μM, three independent measurements in duplicate) and 16.8 ± 4.6 nM in the assay on Trica-SKR1 (aequorin bioluminescence, 1 fM to 1 μM, ± 95% confidence interval, three independent measurements in duplicate). The “% Trica-SKR2 (relative activation)” value with Trica-SKR2 (aequorin bioluminescence) was determined as 79.9%. The “times less potent than sTrica-SK(5–13) as Trica-SKR2 agonist” value in the assay on Trica-SKR2 (ratio of EC50 values) was “ca. 1500 times”. Moreover, the “% Trica-SKR1 (relative activation)” value in the assay with Trica-SKR1 (aequorin bioluminescence) is listed as 75.0%. The “times less potent than sTrica-SK(5–13) in activating the Trica-SKR1” value in the assay on Trica-SKR1 (ratio of EC50 values) is “about 150 times”.
As for “pQLASDDYGHMRFa [nsLocmi-SK, nonsulfated Locusta migratoria SK]”, the “% Trica-SKR2 (relative activation)” value in the assay with Trica-SKR2 (aequorin bioluminescence) is on record as 18.2%. Besides, the “% Trica-SKR1 (relative activation)” value in the assay with Trica-SKR1 (aequorin bioluminescence) is recorded as 22.2%.
Take “pQPSY(SO3H)DRDIMSFa [1679[φ1]wp-4, sulfated neuropeptide derived from C. elegans nlp-13]”: the “% Trica-SKR2 (relative activation)” value in the assay on Trica-SKR2 (aequorin bioluminescence) is on record as 16.6%. Also, the “% Trica-SKR1 (relative activation)” value in the assay with Trica-SKR1 (aequorin bioluminescence) amounted to 16.5%.
With FDDYGHMRA-NH2 [2003[φ1]wp-2], the values for the aequorin bioluminescence in CHO-WTA11 cells transfected with the receptor, peptide at 1 μM, % of the response to 1 μM sTrica-SK(5–13) in assay [1] and in assay [2] were 15.6% and 8.2%, respectively.
Turning to FDDYGHMAF-NH2 [2004[φ1]wp-1], the figures for the aequorin bioluminescence in CHO-WTA11 cells transfected with the receptor, peptide at 1 μM, % of the response to 1 μM sTrica-SK(5–13) in assay [1] and in assay [2] were 7.3% and 5.9%, respectively.
Consider FDDYGHMRF-NH2 [nonsulfated Trica-SK(5–13)], for which the figures for the aequorin bioluminescence in CHO-WTA11 cells transfected with the receptor, peptide at 1 μM, % of the response to 1 μM sTrica-SK(5–13) in assay [1] and in assay [2] were 23.5% and 29.9%, respectively.
The like results for FDDYGAMRF-NH2 [2006[φ1]wp-1] were, in that order, 3.5% and 2.3%.
With FDDYAHMRF-NH2 (ends and bridges not checked) [2007[φ1]wp-1], the aequorin bioluminescence in CHO-WTA11 cells transfected with the receptor, peptide at 1 μM, % of the response to 1 μM sTrica-SK(5–13) worked out at 25.6% in assay [1] and 30.6% in assay [2].

B1: nsLocmi-SK (peptide)
peptide: [pGlu]LASDDYGHMRF-NH2
SMILES: CSCC[C@H](NC(=O)[C@H](Cc1c[nH]cn1)NC(=O)CNC(=O)[C@H](Cc1ccc(O)cc1)NC(=O)[C@H](CC(=O)O)NC(=O)[C@H](CC(=O)O)NC(=O)[C@H](CO)NC(=O)[C@H](C)NC(=O)[C@H](CC(C)C)NC(=O)[C@@H]1CCC(=O)N1)C(=O)N[C@@H](CCCNC(=N)N)C(=O)N[C@@H](Cc1ccccc1)C(N)=O
As for B1, the aequorin bioluminescence in CHO-WTA11 cells transfected with the receptor, peptide at 1 μM, % of the response to 1 μM sTrica-SK(5–13) in assay [1] was found to be 18.2%; in assay [2], 22.2%.
For FDDYGHARF-NH2 [2005[φ1]wp-3] the same measures were 11.1% and 5.1%.
